Reference: PMC5729429, “Gimatecan exerts potent antitumor activity against gastric cancer in vitro and in vivo via AKT and MAPK signaling pathways” (Journal of Translational Medicine, 2017)

Legend:
HGC27 cells = experiment: Annexin V-PE/7-AAD apoptosis assay (flow cytometry), HGC27; assay type: cell-based, human; conditions: 1000 nM, 24 h
Procedure: Apoptosis was measured by staining with phycoerythrin (PE)-annexin V and 7-amino-actinomycin (7-AAD) (BD Biosciences, Erembodegem, Belgium) for 15 min at room temperature in the dark, followed by flow cytometry (BD Biosciences) within 1 h. Apoptosis was analyzed with FlowJo 7.6 software (FlowJo, LLC, Ashland, Oregon).
Supplementary file 12967_2017_1360_MOESM2_ESM.pdf: Additional file 2: Figure S2. Gimatecan induces apoptosis in HGC27 cell line. (A) Compared with irinotecan, gimatecan induced higher cell apoptosis in HGC27 cell. Cells were treated with gimatecan (0–1 µM) and irinotecan (0–1 µM) for 24 h and stained with Annexin V-PE/7-AAD. Sums of percentages of early apoptosis (Q3) and late apoptosis (Q2) were calculated as the total apoptosis ratios. (B) Pro- and anti-apoptotic proteins including Bcl-2, Bak, PARP and cleaved PARP were assessed by western-blotting in HGC27 cell. Western-blotting bands were quantified and normalized by ImageJ. All data are means ± SD of three independent experiments. *Compared with controls, p < 0.05; ns, p > 0.05.

MGC803 cells = experiment: Cell viability assay (CCK-8), MGC803; assay type: cell-based; conditions: Homo sapiens, MGC-803, Fig. S1B 48 h exposure, 0–1 µM, read-out: IC50 antiproliferative effect
Procedure: Human GC cell lines SNU-1, HGC27 and MGC803 were purchased from Peking Union Medical College, and the NCI-N87 cell line was a gift from You-yong Lv, Ph.D. (Peking University Cancer Hospital and Institute). Cells were cultured in RPMI 1640 medium and Dulbecco’s Modified Eagle Medium (Gibco-BRL, MD, USA), respectively, supplemented with 10% fetal bovine serum (Gibco-BRL), 100 U/ml penicillin (Gibco-BRL) and […] streptomycin (Gibco-BRL). Cells were incubated in a humidified incubator (37 °C) supplemented with 5% CO2.
[…] Cell viability was measured using a Cell Counting Kit-8 (Dojindo, Kumamoto, Japan) according to the manufacturer’s instructions. Absorbance at 450 nm was measured using a microplate spectrophotometer. All experiments were repeated at least three times.

[1] = tested on: AKT and MAPK signaling pathways; experiment: Western blot of AKT and MAPK pathway molecules in GC cells; assay type: cell-based, human; conditions: 48 h
Procedure: SNU-1, HGC27 and NCI-N87 cells were starved in serum-free medium overnight, exposed to inhibitors for 48 h and harvested at 70–80% confluence. Total protein was extracted from cells or xenograft tissues on ice, using RIPA Lysis Buffer (Beyotime, Shanghai, China) supplemented with complete protease inhibitor and phosphatase inhibitor cocktail (Roche, Basel, Switzerland). Protein concentration was measured using a BCA Protein Assay Kit (Beyotime, Shanghai, China), and 50 μg protein from each sample was separated by 10% SDS-PAGE. After transfer to nitrocellulose membranes (GE Healthcare, Piscataway, NJ), samples were incubated with corresponding primary antibodies diluted in 5% BSA at 4 °C overnight and then with secondary antibodies at room temperature for 1 h. Proteins were visualized with a chemiluminescent detection system (GE Healthcare), using ECL plus Western blot reagents (GE Healthcare). Western-blotting bands were quantified and normalized by ImageJ software.
Cells were starved in serum-free medium overnight, exposed to gimatecan or irinotecan for 48 h and harvested at 70–80% confluence. Total protein of SNU-1 and NCI-N87 was extracted and the expression of TopI, pAKT, pMEK, pERK, p-p38 MAPK and pJNK2 were assessed by western-blotting followed by quantification and normalization by ImageJ. All data are mean ± SD of three independent experiments. Compared with controls, *p < 0.05

## CC[C@@]1(O)C(=O)OCc2c1cc1n(c2=O)Cc2c-1nc1ccccc1c2/C=N/OC(C)(C)C [Gimatecan, 7-t-butoxyiminomethylcamptothecin]
HGC27 cells
  proportion of apoptotic cells: 14.27 ± 1.69%
MGC803 cells
  IC50: 3.29 nM
[1]; NCI-N87 cells
  effect on AKT and MAPK pathway molecules: only inhibited expression of pAKT and pERK
[1]; SNU-1 and HGC27 cells, pAKT, pMEK, pERK inhibited, p-p38 and pJNK2 upregulated
  effect on AKT and MAPK pathway molecules: significantly inhibited the AKT pathway and activated the JNK2 and p38 MAPK pathway
